According to patent US20130029942A1, “COMPOUNDS AND THERAPEUTICAL USES THEREOF” (Myrexis, Inc., priority 2003, published 2013):
Like-named read-outs stand apart in the source and are kept apart here. One block for each molecule: values may come before it.

Assays:
NCI-ADR/Res cells = assay: Cytotoxicity (ATP-lite cell viability), MDR-1 over-expressing NCI-ADR/Res; assay type: cell-based; settings: Homo sapiens, 72 hours
Protocol: (§1) Cytotoxicity of compounds in multidrug resistant cells can be determined by administering compounds to cell lines that overexpress the multidrug resistance pump MDR-1 and determining the viability of the cell lines.
(§2) NCI-ADR/Res, MCF-7, P388, and P388/ADR cell lines were obtained from American Type Culture Collection (Manassas, Va.) and maintained in RPMI-1640 media supplemented with 10% FCS, 10 units/ml penicillin and streptomycin, 2 mM Glutamax and 1 mM sodium pyruvate (Invitrogen Corporation, Carlsbad, Calif.). For compound testing, cells were plated in 96 well dishes at a concentration of 1.5×10^4 cells/well. Cells were allowed to adhere to the plate overnight and then incubated with compounds at final concentrations ranging from 0.13 nM to 10 uM for 72 hours. Cell viability was then assessed using the ATP-lite reagent (Perkin Elmer, Foster City, Calif.). Plates were read on a Wallac Topcount luminescence reader (Perkin Elmer, Foster City, Calif.) and the results graphed in Prism software (Graphpad Software, Inc., San Diego, Calif.). Non-linear regression with variable slope analysis was performed to obtain IC50 concentration values.
(§3) Example 1 compound, docetaxel, and vinblastine were tested for their ability to kill multidrug resistant cells by administering the compounds to NCI-ADR/Res, MCF-7 cells, P388 and P388/ADR cells and determining the viability of the cells.

P388/ADR cells = assay: Cytotoxicity (ATP-lite cell viability), MDR-1 over-expressing P388/ADR; assay type: cell-based; settings: Mus musculus, 72 hours
Protocol: as §1, §2, §3

MCF-7 cells = assay: Cytotoxicity (ATP-lite cell viability), MCF-7; assay type: cell-based; settings: Homo sapiens, MCF7; MCF-7, 72 hours
Protocol: as §1, §2, §3

P388 cells = assay: Cytotoxicity (ATP-lite cell viability), P388; assay type: cell-based, murine; settings: Mus musculus; P388, 72 hours
Protocol: as §1, §2, §3

T-47D cells [1] = assay: Caspase cascade activation / induction of apoptosis in T-47D cells (fluorogenic N-(Ac-DEVD)-N'-ethoxycarbonyl-R110 substrate); assay type: cell-based, human; settings: Homo sapiens, T47D
DLD cells = assay: Inhibition of cell proliferation (GI50), CellTiter-Glo, DLD; assay type: cell-based; settings: Homo sapiens, 48 h
Protocol: (§4) T-47D, DLD, H1299, MX-1 and SW620 cells were grown and harvested as in Example 262. […] An aliquot of 45 μL of cells was added to a well of a 96-well microtiter plate containing 5 μL of a 10% DMSO in RPMI-1640 media solution without compound as the control sample for maximal cell proliferation (Lmax). The samples were mixed by agitation and then incubated at 37° C. for 48 h in a 5% CO2—95% humidity incubator. After incubation, the samples were removed from the incubator and 25 μL of CellTiter-Glo™ reagent (Promega) was added. The samples were mixed by agitation and incubated at room temeperature for 10-15 min. Plates were then read using a luminescent plate reader (Model SPECTRAfluor Plus, Tecan) to give Ltest values.
(§5) The samples were mixed by agitation and then incubated at 37° C. for 0.5 h in a 5% CO2—95% humidity incubator. After incubation, the samples were removed from the incubator and 25 μL of CellTiter-Glo™ reagent (Promega) was added. The samples were mixed by agitation and incubated at 37° C. for 10-15 min at room temperature in a 5% CO2—95% humidity incubator. Fluorescence was read as above, (LStart) defining luminescence for initial cell number used as baseline in GI50 determinations.

tubulin = tubulin (Bos taurus, UniProt P81947+Q6B856); assay: Inhibition of tubulin polymerization (DAPI fluorescence); assay type: biochemical; settings: MAP-rich tubulin, 30 minutes at 37° C.
tubulin, sequence (P81947 whole entry): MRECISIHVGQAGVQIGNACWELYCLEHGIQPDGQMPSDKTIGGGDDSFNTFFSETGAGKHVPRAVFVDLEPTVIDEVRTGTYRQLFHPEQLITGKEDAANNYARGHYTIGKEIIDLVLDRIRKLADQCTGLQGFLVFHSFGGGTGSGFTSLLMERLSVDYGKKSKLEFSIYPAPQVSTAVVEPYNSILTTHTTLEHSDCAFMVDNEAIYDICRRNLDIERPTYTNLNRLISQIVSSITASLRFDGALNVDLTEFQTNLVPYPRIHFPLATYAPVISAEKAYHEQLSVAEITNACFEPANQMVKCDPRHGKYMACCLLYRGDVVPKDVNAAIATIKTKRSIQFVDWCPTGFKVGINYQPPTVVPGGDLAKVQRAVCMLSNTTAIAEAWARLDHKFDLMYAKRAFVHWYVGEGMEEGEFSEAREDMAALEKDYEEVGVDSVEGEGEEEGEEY
tubulin, sequence (Q6B856 whole entry): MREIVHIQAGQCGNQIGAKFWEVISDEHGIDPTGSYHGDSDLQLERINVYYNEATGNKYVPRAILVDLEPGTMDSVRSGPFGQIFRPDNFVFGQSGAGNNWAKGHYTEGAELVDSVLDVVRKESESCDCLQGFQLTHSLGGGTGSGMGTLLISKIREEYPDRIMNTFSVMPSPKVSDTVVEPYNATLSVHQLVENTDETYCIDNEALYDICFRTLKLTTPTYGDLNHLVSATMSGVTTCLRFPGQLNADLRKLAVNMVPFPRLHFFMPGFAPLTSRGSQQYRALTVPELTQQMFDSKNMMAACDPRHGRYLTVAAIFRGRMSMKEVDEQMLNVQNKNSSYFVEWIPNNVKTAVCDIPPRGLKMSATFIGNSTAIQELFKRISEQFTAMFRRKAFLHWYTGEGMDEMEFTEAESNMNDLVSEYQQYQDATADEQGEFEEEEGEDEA
Protocol: Lyophilized tubulin (Cytoskeleton #ML113, 1 mg, MAP-rich) was assayed for the effect of the test compound on tubulin polymerization as measured by change in fluorescence for 4′,6-diamidino-2-phenylindole (DAPI) (Barron, D. M. et al. Analytical Biochem., 2003, 315, 49-56). 1 μl of serial dilutions of each test compound (from 100×DMSO stock) was added in 96 well plate format and preincubated for 30 minutes with 94 ul of the non-GTP supplemented tubulin supernatant. 5 μl of DAPI/GTP solution was added to initiate polymerization and incubated for 30 minutes at 37° C. Fluorescence was read with excitation 350 nm, emission wavelength 485 nm on a Tecan Spectraflour Plus. Polymerized tubulin (DMSO and with the tubulin stabilizer Taxol® (paclitaxel)) gives a higher DAPI fluorescence as compared to non-polymerized tubulin (vinblastine and colchicine used to determine baseline).

T-47D cells [2] = assay: Inhibition of cell proliferation (GI50), CellTiter-Glo, T-47D; assay type: cell-based; settings: Homo sapiens, T47D, 48 h
Protocol: as §4, §5

MX-1 cells = assay: Inhibition of cell proliferation (GI50), CellTiter-Glo, MX-1; assay type: cell-based; settings: Homo sapiens
Protocol: as §4, §5

Topoisomerase II = Topoisomerase II (Homo sapiens, UniProt P11388); assay: Topoisomerase II activity assay (relaxation of supercoiled DNA, gel); settings: 100 μM, pRYG DNA, FIG. 1
Topoisomerase II, sequence (P11388 whole entry): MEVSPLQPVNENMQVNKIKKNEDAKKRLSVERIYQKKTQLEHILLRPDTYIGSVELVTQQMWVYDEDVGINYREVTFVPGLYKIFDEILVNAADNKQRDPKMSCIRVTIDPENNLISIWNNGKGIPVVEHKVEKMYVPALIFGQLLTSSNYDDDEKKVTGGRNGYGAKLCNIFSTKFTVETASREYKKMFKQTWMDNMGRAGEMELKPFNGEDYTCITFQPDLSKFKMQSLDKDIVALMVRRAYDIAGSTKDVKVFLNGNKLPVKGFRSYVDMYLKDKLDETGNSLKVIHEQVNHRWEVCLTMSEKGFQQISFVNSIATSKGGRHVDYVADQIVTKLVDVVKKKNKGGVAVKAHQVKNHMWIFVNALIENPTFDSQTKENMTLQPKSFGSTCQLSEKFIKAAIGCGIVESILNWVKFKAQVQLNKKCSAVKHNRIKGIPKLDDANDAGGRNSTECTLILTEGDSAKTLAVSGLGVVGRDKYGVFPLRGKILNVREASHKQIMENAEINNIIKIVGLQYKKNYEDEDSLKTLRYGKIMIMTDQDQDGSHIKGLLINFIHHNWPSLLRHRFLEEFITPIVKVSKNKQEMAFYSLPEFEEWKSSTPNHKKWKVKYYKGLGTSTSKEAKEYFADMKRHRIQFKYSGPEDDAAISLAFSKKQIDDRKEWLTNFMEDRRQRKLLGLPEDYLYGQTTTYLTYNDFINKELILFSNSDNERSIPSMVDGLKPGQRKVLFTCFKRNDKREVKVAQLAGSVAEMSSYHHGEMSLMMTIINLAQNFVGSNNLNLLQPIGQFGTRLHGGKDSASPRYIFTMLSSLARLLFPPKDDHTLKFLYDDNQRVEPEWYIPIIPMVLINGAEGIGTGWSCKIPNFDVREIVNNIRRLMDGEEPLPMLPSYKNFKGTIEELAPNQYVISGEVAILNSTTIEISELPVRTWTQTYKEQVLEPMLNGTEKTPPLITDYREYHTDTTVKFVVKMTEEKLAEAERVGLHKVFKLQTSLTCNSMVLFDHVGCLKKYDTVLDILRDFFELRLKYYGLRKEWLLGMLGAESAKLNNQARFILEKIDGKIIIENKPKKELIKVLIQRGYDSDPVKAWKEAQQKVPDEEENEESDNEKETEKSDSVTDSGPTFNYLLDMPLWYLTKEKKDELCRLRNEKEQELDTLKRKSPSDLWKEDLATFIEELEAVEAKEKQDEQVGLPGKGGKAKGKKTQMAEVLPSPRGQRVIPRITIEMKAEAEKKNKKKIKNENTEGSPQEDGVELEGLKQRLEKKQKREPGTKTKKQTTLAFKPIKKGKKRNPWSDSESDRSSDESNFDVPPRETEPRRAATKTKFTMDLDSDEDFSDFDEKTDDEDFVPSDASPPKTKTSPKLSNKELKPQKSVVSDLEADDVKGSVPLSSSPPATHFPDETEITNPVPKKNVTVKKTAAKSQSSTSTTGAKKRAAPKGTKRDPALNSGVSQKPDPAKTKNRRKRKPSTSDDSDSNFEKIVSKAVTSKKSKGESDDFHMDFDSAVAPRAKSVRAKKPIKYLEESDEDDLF

topoisomerase I = target: T1, topoisomerase I (Homo sapiens, UniProt P11387); assay: Topoisomerase I activity assay (relaxation of supercoiled DNA, gel); settings: Form I DNA, varying concentrations, FIG. 2
T1 sequence (P11387 1-765): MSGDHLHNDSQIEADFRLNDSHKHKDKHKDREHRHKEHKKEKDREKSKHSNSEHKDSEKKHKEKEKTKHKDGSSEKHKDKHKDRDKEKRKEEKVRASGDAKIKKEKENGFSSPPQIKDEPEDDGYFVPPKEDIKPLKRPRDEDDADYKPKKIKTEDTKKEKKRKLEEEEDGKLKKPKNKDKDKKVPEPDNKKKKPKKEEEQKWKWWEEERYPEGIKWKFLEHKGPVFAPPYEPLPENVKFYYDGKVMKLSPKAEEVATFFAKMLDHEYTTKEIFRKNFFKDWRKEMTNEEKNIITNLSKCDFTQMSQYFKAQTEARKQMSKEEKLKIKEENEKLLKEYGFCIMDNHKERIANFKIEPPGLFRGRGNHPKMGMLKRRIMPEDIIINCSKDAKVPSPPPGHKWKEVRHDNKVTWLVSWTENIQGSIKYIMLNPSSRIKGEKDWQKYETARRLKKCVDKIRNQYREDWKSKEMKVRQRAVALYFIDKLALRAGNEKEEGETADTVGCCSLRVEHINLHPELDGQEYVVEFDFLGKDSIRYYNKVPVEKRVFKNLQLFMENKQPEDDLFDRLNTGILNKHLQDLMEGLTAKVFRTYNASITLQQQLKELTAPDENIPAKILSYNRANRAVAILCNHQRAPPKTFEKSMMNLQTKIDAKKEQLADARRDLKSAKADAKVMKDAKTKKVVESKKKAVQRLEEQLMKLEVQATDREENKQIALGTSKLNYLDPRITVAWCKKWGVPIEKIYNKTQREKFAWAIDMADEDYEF

H1299 cells = assay: Inhibition of cell proliferation (GI50), CellTiter-Glo, H1299; assay type: cell-based; settings: Homo sapiens, NCI-H1299, 48 h
Protocol: as §4, §5

SW620 cells = assay: Inhibition of cell proliferation (GI50), CellTiter-Glo, SW620; assay type: cell-based; settings: Homo sapiens
Protocol: as §4, §5

[3] = target: tyrosine kinase of Epidermal Growth Factor Receptor (Homo sapiens, UniProt P00533); settings: Bridges et al. 1996; read-out: IC50 EGFR tyrosine kinase; cited from earlier work
tyrosine kinase of Epidermal Growth Factor Receptor, sequence (P00533 25-1210): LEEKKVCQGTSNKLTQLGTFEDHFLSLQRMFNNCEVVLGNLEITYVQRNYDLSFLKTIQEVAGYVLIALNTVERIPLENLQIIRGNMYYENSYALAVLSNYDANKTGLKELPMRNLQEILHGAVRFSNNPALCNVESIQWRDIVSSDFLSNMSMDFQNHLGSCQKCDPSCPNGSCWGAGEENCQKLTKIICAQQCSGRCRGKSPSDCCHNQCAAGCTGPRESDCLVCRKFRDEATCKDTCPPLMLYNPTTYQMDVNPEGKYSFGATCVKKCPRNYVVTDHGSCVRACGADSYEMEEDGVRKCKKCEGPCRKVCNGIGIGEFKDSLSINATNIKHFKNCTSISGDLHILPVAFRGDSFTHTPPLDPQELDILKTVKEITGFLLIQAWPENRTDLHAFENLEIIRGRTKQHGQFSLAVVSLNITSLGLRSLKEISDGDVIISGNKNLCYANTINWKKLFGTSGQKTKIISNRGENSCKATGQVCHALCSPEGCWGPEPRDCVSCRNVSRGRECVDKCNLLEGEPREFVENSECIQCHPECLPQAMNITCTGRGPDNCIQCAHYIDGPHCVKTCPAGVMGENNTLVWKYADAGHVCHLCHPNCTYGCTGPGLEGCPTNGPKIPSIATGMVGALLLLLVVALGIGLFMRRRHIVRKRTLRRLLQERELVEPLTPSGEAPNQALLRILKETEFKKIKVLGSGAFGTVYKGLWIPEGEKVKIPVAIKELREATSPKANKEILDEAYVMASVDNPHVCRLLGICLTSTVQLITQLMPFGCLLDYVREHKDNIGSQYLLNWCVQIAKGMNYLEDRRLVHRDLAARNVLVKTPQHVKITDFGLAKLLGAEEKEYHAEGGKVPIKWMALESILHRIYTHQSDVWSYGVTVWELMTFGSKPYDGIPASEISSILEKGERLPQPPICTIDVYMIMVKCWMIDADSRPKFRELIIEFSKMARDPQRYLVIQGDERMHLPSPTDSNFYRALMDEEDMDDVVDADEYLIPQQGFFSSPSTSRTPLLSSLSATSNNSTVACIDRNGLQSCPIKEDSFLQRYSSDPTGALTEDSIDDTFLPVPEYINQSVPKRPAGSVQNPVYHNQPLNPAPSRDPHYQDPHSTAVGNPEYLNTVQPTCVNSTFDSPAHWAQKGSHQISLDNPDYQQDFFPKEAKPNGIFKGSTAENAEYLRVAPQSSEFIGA

[4] = target: T2, Human Type II Topoisomerase (p170 Form) (Homo sapiens, UniProt P11388); assay: Photo-crosslinking of radiolabeled compound to Topoisomerase II (SDS gel, autoradiography); assay type: binding; settings: 50 nM, 60 minutes at room temperature, UV 254 nm, FIG. 3
T2 construct: purchased TopoGEN, Inc., Columbus, Ohio
T2 sequence (P11388 whole entry): as the sequence (P11388 whole entry) above
Protocol: 30 Units (15 ul) Human Type II Topoisomerase (p170 Form) (from TopoGEN, Inc., Columbus, Ohio) was incubated with 50 nM radiolabeled Example 102 compound for 60 minutes at room temperature.
Radiolabeled Example 102 compound stock is 16.67 uM, 60 Ci/mmol, 1 mCi/ml American Radiolabeled Chemicals, Inc., St. Louis, Mo. Samples were either UV irradiated (+) with a short wavelength UV Source (254 nm) for 10 minutes at a distance of 3.5 cm or not irradiated (−). 8 ul of 5× sample buffer (150 mM Tris, pH 6.8, 50% glycerol, 1% SDS, 50 mM dithiothreitol, 62 mg/ml bromophenol blue) was added to the samples and boiled for 5 minutes. The entire sample was then loaded onto a 6% Tris-Glycine SDS-gel (10 well, 1.5 mm thickness) (Invitrogen, Carlsbad, Calif.). The gel was stained with 1% Coomassie Brilliant Blue in 40% methanol, 7.5% acetic acid for 2 hours then de-stained in several changes of de-stainer (40% methanol, 7.5% acetic acid). The gel was then incubated in Amplify (Amersham, Piscataway, N.J.) for 30 minutes at room temperature and then dried down on Whatman filter paper at 80° C. for 2 hours on a gel dryer. The dried gel was put on Hyperfilm (Amersham) in a film cassette and placed at −80° C. for 5-7 days.

[5] = T-47D, 24 hr, read-out: T-47D (24 hr) EC50
[6] = Table III, time not given, repeats 24 hr or 48 hr T-47D values of Table I, read-out: Caspase activation (EC50 nM)
[7] = MX1, MX-1, 48 h, read-out: GI50
[8] = SW-620, SW620, 48 h, read-out: GI50

Molecule: CC(=O)O[C@@]12CO[C@@H]1C[C@H](O)[C@@]1(C)C(=O)[C@H](O)C3=C(C)[C@@H](OC(=O)[C@H](O)[C@@H](NC(=O)OC(C)(C)C)c4ccccc4)C[C@@](O)([C@@H](OC(=O)c4ccccc4)[C@H]21)C3(C)C [Docetaxel, docetaxel]
- IC50 (NCI-ADR/Res cells): 410 nM
- IC50 (P388/ADR cells): 127 nM
- IC50 (MCF-7 cells): 2 nM
- IC50 (P388 cells): 7 nM

Molecule: COc1ccc(N(C)c2nc(Cl)nc3ccccc23)cc1 [Example 1]
- IC50 (NCI-ADR/Res cells): 1.3 nM
- EC50 (T-47D cells [1]; 24 h, read-out: T-47D (24 hr) EC50 (nM)): 2 nM
- EC50 (T-47D cells [1]; read-out: Caspase activation (EC50 nM)): 2 nM
- GI50 (DLD cells): 8 nM
- IC50 (P388/ADR cells): 2.7 nM
- IC50 (MCF-7 cells): 2.9 nM
- IC50 (tubulin): < 500 nM
- IC50 (P388 cells): 1.1 nM
- GI50 (T-47D cells [2]): 8 nM
- GI50 (MX-1 cells; MX1, 48 h): 5 nM
- Inhibition of topoisomerase II-dependent relaxation of supercoiled DNA (Topoisomerase II): inhibition of DNA relaxation is substantial
- Effect on topoisomerase I-dependent relaxation of supercoiled DNA (topoisomerase I): no apparent effect on topoisomerase I activity
- GI50 (H1299 cells): 6 nM
- GI50 (SW620 cells; SW-620, 48 h): 3 nM

- EC50 (T-47D cells [1]; [5]): > 10000 nM
- EC50 (T-47D cells [1]; T-47D, 48 hr, read-out: T-47D (48 hr) EC50): > 10000 nM
- EC50 (T-47D cells [1]; [6]): > 10000 nM
- GI50 (DLD cells; DLD, read-out: GI50): > 10000 nM
- IC50 (tubulin): > 50000 nM
- GI50 (T-47D cells [2]; T-47D, read-out: GI50): > 10000 nM
- GI50 (H1299 cells; read-out: GI50): > 10000 nM
- GI50 (SW620 cells; [8]): > 10000 nM
Molecule: COc1ccc(Nc2nc(Cl)nc3ccccc23)cc1 [Example 7, (2-Chloro-quinazolin-4-yl)-(4-methoxy-phenyl)-amine]
- GI50 (MX-1 cells; [7]): > 10000 nM

- EC50 (T-47D cells [1]; [5]): 6 nM
- EC50 (T-47D cells [1]; [6]): 6 nM
- GI50 (DLD cells; DLD, read-out: GI50): 89 nM
- IC50 (tubulin): < 1000 nM
- GI50 (T-47D cells [2]; T-47D, read-out: GI50): 111 nM
- GI50 (H1299 cells; read-out: GI50): 53 nM
- GI50 (SW620 cells; [8]): 70 nM
Molecule: COc1ccc(N(C)c2nc(Cl)nc3ccccc23)cn1 [Example 36, (2-Chloro-quinazolin-4-yl)-(6-methoxy-pyridin-3-yl)-methyl-amine]
- GI50 (MX-1 cells; [7]): 73 nM

Molecule: COc1cc2nc(C)nc(Nc3cccc(Br)c3)c2cc1OC [R1=Me, R2=3′-Br, R3═H]
- IC50 [3]: > 10000 nM

Molecule: COc1cc2nc(N)nc(Nc3cccc(Br)c3)c2cc1OC [R1═NH2, R2=3′-Br, R3═H]
- IC50 [3]: > 10000 nM

Molecule: COc1cc([C@@H]2c3cc4c(cc3[C@@H](O[C@@H]3O[C@@H]5CO[C@@H](C)O[C@H]5[C@H](O)[C@H]3O)[C@H]3COC(=O)[C@H]23)OCO4)cc(OC)c1O [VP-16, etoposide, reference compound]
- Effect on topoisomerase I-dependent relaxation of supercoiled DNA (topoisomerase I): no apparent effect on topoisomerase I activity

Molecule: CC[C@]1(O)C[C@@H]2CN(CCc3c([nH]c4ccccc34)[C@@](C(=O)OC)(c3cc4c(cc3OC)N(C)[C@H]3[C@@](O)(C(=O)OC)[C@H](OC(C)=O)[C@]5(CC)C=CCN6CC[C@]43[C@@H]65)C2)C1 [Vinblastine, vinblastine]
- IC50 (NCI-ADR/Res cells): 3 nM
- IC50 (P388/ADR cells): 2.8 nM
- IC50 (MCF-7 cells): 0.5 nM
- IC50 (P388 cells): 2.6 nM

Molecule: Radiolabeled (4-Azido-phenyl)-(2-methyl-quinazolin-4-yl)-methyl-amine [Radiolabeled Example 102 compound]
- Binding to Topoisomerase II (crosslink on UV irradiation) [4]: binds sufficiently well to Topoisomerase II to crosslink to the enzyme when photoactivated
